Measurements reported in ChEMBL document CHEMBL4311969, “Polygala tenuifolia-Acori tatarinowii herbal pair as an inspiration for substituted cinnamic α-asaronol esters: Design, synthesis, anticonvulsant activity, and inhibition of lactate dehydrogenase study” (Eur J Med Chem, 2019).
Where “and” joins values, the source holds several entries; their conditions need not be identical. Equal values may be shown once. Calls of active or inactive are those of the source. The rule behind the calls is not given here.

How the values were obtained:
Mus musculus [1] = test: Anticonvulsant activity in Kunming mouse assessed as reduction in Sc3-MP-induced seizure at 300 mg/kg, ip administered 0.25 to 2 hrs before Sc3-MP stimulation relative to control; format: functional; parameters: scale not given: the % may be the effect or the level left
[2] = Neurotoxicity against Kunming mouse assessed as time remained in rod at 100 mg/kg, ip administered 0.5 to 2 hrs by rotarod test; format: toxicity, organism-based; conditions: in vivo
Mus musculus [3] = test: Anticonvulsant activity in Kunming mouse assessed as reduction in ScPTZ-induced tonic seizure rate at 100 mg/kg, ip administered 0.5 hrs before ScPTZ stimulation relative to control; format: functional; parameters: scale not given: the % may be the effect or the level left
[4] = Protective index, ratio of TD50 for neurotoxicity against ip dosed Kunming mouse assessed as time remained in rod measured at 0.5 hrs by rotarod test to ED50 for anticonvulsant activity in ip dosed Kunming mouse assessed as MES-induced hind limb extension administered 0.5 hrs; format: toxicity, organism-based; conditions: in vivo, read-out: PI
Mus musculus [5] = test: Anticonvulsant activity in Kunming mouse assessed as reduction in ScPTZ-induced seizure at 100 mg/kg, ip administered 0.25 to 2 hrs before ScPTZ stimulation relative to control; format: functional
Mus musculus [6] = test: Anticonvulsant activity in Kunming mouse assessed as reduction in ScPTZ-induced seizure at 100 mg/kg, ip administered 1 hr relative to control; format: functional; parameters: scale not given: the % may be the effect or the level left
Mus musculus [7] = test: Anticonvulsant activity in Kunming mouse assessed as reduction in ScPTZ-induced clonic seizure at 100 mg/kg, ip administered 0.5 hrs before ScPTZ stimulation relative to control; format: functional; parameters: scale not given: the % may be the effect or the level left
[8] = Neurotoxicity against ip dosed Kunming mouse assessed as time remained in rod measured at 0.5 hrs by rotarod test; format: toxicity, organism-based; conditions: in vivo
Mus musculus [9] = test: Anticonvulsant activity in Kunming mouse assessed as reduction in ScPTZ-induced tonic seizure rate at 300 mg/kg, ip administered 0.5 hrs before ScPTZ stimulation relative to control; format: functional; parameters: scale not given: the % may be the effect or the level left
[10] = (§1) Protective index, ratio of TD50 for neurotoxicity against ip dosed Kunming mouse assessed as time remained in rod measured at 0.5 hrs by rotarod test to ED50 for anticonvulsant activity in ip dosed Kunming mouse assessed as reduction in ScPTZ-induced seizure administered 0.5 hrs before ScPTZ stimulation; format: toxicity, organism-based; conditions: in vivo, read-out: PI
Mus musculus [11] = test: Anticonvulsant activity in ip dosed Kunming mouse assessed as reduction in ScPTZ-induced seizure administered 0.5 hrs before ScPTZ stimulation; format: functional
Homo sapiens [12] = species: Homo sapiens; test: Inhibition of human LDH1 at 0.5 mM using sodium pyruvate as substrate by UV-VIS spectrophotometry method relative to control
Mus musculus [13] = test: Anticonvulsant activity in Kunming mouse assessed as reduction in Sc3-MP-induced tonic seizure rate at 300 mg/kg, ip administered 0.5 hrs before Sc3-MP stimulation relative to control; format: functional; parameters: scale not given: the % may be the effect or the level left
[14] = as §1, with “formalin-induced paw licking” for “ScPTZ-induced seizure”, “formalin” for “ScPTZ”; format: toxicity, organism-based; conditions: in vivo, read-out: PI
Mus musculus [15] = test: Anticonvulsant activity in Kunming mouse assessed as MES-induced hind limb extension at 100 mg/kg, ip administered 0. 5 to 4 hrs before MES stimulation relative to control; format: functional
Mus musculus [16] = test: Anticonvulsant activity in Kunming mouse assessed as reduction in Sc3-MP-induced clonic seizure rate at 300 mg/kg, ip administered 0.5 hrs before Sc3-MP stimulation relative to control; format: functional; parameters: scale not given: the % may be the effect or the level left
Mus musculus [17] = test: Anticonvulsant activity in Kunming mouse assessed as MES-induced hind limb extension at 50 mg/kg, ip administered 0.5 to 4 hrs before MES stimulation relative to control; format: functional
Mus musculus [18] = test: Anticonvulsant activity in Kunming mouse assessed as reduction in Sc3-MP-induced seizure ip dosed measured at 0.5 hrs before Sc3-MP stimulation; format: functional
Homo sapiens [19] = species: Homo sapiens; test: Inhibition of human LDH5 at 0.5 mM using sodium pyruvate as substrate by UV-VIS spectrophotometry method relative to control
Mus musculus [20] = test: Anticonvulsant activity in Kunming mouse assessed as reduction in ScPTZ-induced seizure at 300 mg/kg, ip administered 0.25 to 2 hrs before ScPTZ stimulation relative to control; format: functional; parameters: scale not given: the % may be the effect or the level left
Mus musculus [21] = test: Anticonvulsant activity in Kunming mouse assessed as MES-induced hind limb extension at 100 mg/kg, ip administered 3 hrs before MES stimulation; format: functional, organism-based
Mus musculus [22] = test: Anticonvulsant activity in Kunming mouse assessed as reduction in ScPTZ-induced seizure at 100 mg/kg, ip administered 0.5 hrs before ScPTZ stimulation relative to control; format: functional; parameters: scale not given: the % may be the effect or the level left
Mus musculus [23] = test: Anticonvulsant activity in ip dosed Kunming mouse assessed as MES-induced hind limb extension administered 0.5 hrs before MES stimulation; format: functional
[24] = as §1, with “Sc3-MP-induced” for “ScPTZ-induced”, “Sc3-MP” for “ScPTZ”; format: toxicity, organism-based; conditions: in vivo, read-out: PI
Mus musculus [25] = test: Anticonvulsant activity in Kunming mouse assessed as reduction in ScPTZ-induced clonic seizure at 300 mg/kg, ip administered 0.5 hrs before ScPTZ stimulation relative to control; format: functional; parameters: scale not given: the % may be the effect or the level left
Mus musculus [26] = test: Anticonvulsant activity in Kunming mouse assessed as MES-induced hind limb extension at 100 mg/kg, ip administered 0. 5 to 2 hrs before MES stimulation; format: functional, organism-based
Mus musculus [27] = test: […] activity in ip dosed Kunming mouse assessed as reduction in formalin-induced paw licking administered 0.5 hrs before formalin stimulation; format: functional
Homo sapiens [28] = species: Homo sapiens; test: Inhibition of human LDH1 at 2 mM using sodium pyruvate as substrate by UV-VIS spectrophotometry method relative to control
[29] = biological target: T1, GABA-A receptor; alpha-1/beta-2/gamma-2 (Homo sapiens, UniProt P14867+P18507+P47870); test: Agonist activity at GABA alpha1beta2gamma2 receptor in human HEK293T at -50 mV holding potential by whole cell voltage clamp assay; format: protein-complex assay
T1 sequence (P14867 whole entry): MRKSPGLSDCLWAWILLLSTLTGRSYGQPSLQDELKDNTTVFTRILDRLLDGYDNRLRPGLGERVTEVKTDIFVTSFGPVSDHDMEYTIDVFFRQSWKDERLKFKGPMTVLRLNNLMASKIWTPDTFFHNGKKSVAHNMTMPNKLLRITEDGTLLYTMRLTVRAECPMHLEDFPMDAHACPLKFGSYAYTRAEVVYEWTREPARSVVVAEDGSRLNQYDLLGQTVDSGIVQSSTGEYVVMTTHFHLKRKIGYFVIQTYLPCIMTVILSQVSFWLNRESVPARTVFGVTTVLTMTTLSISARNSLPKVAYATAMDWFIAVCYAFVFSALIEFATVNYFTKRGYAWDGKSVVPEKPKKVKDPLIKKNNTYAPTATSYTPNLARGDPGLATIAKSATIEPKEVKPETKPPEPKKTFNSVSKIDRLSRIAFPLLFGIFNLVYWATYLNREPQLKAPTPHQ
T1 sequence (P47870 whole entry): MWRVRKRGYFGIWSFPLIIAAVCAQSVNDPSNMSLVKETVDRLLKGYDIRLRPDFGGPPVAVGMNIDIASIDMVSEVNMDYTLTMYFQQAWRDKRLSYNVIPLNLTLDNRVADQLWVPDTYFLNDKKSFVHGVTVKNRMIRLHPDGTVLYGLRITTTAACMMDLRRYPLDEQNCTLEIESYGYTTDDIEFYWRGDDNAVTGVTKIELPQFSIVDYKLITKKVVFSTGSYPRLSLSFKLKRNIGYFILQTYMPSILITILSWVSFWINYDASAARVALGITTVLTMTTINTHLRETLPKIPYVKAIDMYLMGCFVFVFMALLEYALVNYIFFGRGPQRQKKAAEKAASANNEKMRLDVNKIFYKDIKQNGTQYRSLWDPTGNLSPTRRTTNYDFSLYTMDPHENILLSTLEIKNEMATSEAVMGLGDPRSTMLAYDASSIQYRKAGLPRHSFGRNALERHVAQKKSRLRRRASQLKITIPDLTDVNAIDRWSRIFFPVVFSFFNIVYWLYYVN
T1 sequence (P18507 whole entry): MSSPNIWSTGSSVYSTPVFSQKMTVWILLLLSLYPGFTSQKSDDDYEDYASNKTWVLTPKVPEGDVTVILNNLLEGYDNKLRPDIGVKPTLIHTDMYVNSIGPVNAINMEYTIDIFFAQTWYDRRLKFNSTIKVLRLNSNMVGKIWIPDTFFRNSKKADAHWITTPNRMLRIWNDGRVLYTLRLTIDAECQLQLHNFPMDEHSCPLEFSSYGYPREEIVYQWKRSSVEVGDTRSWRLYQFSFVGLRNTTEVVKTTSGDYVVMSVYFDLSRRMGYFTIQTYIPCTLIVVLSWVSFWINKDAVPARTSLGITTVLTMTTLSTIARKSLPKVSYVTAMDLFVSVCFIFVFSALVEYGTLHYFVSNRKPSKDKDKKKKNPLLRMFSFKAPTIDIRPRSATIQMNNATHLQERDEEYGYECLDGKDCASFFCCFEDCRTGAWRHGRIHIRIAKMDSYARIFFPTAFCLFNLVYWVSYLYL

[30] = biological target: GABA-A receptor; alpha-1/beta-2/gamma-2 (Homo sapiens) (UniProt P14867+P47870+P18507); test: Agonist activity at GABA alpha1beta2gamma2 receptor in human HEK293T at 3.3 to 300 uM at -50 mV holding potential by whole cell voltage clamp assay relative to control; format: protein-complex assay
Homo sapiens [31] = species: Homo sapiens; test: Inhibition of human LDH5 at 2 mM using sodium pyruvate as substrate by UV-VIS spectrophotometry method relative to control
Mus musculus [32] = test: Anticonvulsant activity in Kunming mouse assessed as MES-induced hind limb extension at 50 mg/kg, ip administered 0.5 and 2 hrs before MES stimulation relative to control; format: functional

Row | Structure (SMILES) | Activity (Mus musculus [1]) [%] | Activity [2] | Activity (Mus musculus [3]) [%] | selectivity ratio at 0.5 h [4] | Activity (Mus musculus [5]) | Activity (Mus musculus [7]) [%] | TD50 at 0.5 h [8] | Activity (Mus musculus [9]) [%] | selectivity ratio at 0.5 h [10] | ED50 (Mus musculus [11]) | inhibition (Homo sapiens [12]) | Activity (Mus musculus [13]) [%] | selectivity ratio at 0.5 h [14] | Activity (Mus musculus [15]) | Activity (Mus musculus [16]) [%] | ED50 (Mus musculus [18]) | inhibition (Homo sapiens [19]) | Activity (Mus musculus [20]) [%] | ED50 (Mus musculus [23]) | Activity (Mus musculus [26]) | further results
1 | COc1ccc(/C=C/C(=O)OC/C=C/c2cc(OC)c(OC)cc2OC)cc1 | 0 | Non-Toxic | 100 | > 14.2 | inactive | 100 | > 1000 mg/kg and > 2600 µmol/kg | 0 | > 4.1 | 244 mg/kg and 634 µmol/kg | inactive | 100 | > 8.2 | 25 - 100% | 100 | > 300 mg/kg and > 780 µmol/kg | inactive | 50 | 70.6 mg/kg and 184 µmol/kg | Active | Activity (Mus musculus [6]): 75%; Activity (Mus musculus [17]): 50%; Activity (Mus musculus [21]): Active; Activity (Mus musculus [22]): 100%; selectivity ratio at 0.5 h [24]: 3.3; Activity (Mus musculus [25]): 100%; ED50 (Mus musculus [27]): 122 mg/kg and 317 µmol/kg
2 | CC(C)(C)C(O)/C=C/c1ccc2c(c1)OCO2 (configuration not stated) [STIRIPENTOL] | – | Non-Toxic | – | – | – | – | – | – | – | – | inactive | – | – | – | – | – | inactive | – | – | Active | inhibition (Homo sapiens [28]): 7 to 10%; EC50 [29]: 46 µM; %max [30]: 310%; inhibition (Homo sapiens [31]): 7 to 10%
3 | COc1cc(OC)c(OC)cc1/C=C/COC(=O)/C=C/c1cc(OC)c(OC)cc1OC | 0 | Non-Toxic | 100 | > 13.6 | inactive | 100 | > 2250 µmol/kg and > 1000 mg/kg | 25 | 5 | > 200 mg/kg and 450 µmol/kg to 675 µmol/kg | – | 75 | 12.5 | 25 - 100% | 100 | > 300 mg/kg and > 675 µmol/kg | – | 50 | 165 µmol/kg and 73.5 mg/kg | Active | Activity (Mus musculus [32]): inactive; selectivity ratio at 0.5 h [24]: 3.3; Activity (Mus musculus [25]): 100%; ED50 (Mus musculus [27]): 180 to 225 µmol/kg
